Results reported in patent publication EP2638113B1, “THIOPHENE AZO DYES AND LAUNDRY CARE COMPOSITIONS CONTAINING THE SAME” (Milliken & Company, priority 2010, dated 2011).

Assay: Aqueous partition value of a dye (water/1-octanol partitioning, absorbance at λmax)
Type: physicochemical
Settings: Aqueous Partition Value (APV) = (Af/Ai) × 100%, deionized water / 1-octanol, 10.0 mL each
Procedure: • I. Method for Determining the Aqueous Partition Value of a Dye Dissolve in deionized water to a final volume of 10.0 mL an amount of dye sufficient to provide a solution absorbance value between 0.25 and 1.0, said absorbance being determined at the dye λmax between 400 nm and 750 nm, using a cuvette with 1.0 cm path length. Measure the absorbance of the sample at the dye λmax in a UV/Vis spectrophotometer, then transfer the entire 10.0 mL solution to a 50.0 mL plastic centrifuge tube. Add 10.0 mL of 1-octanol, cap the tube, and mix vigorously for 30 seconds using a Vortex™ mixer. Leave the tube standing undisturbed until the layers cleanly phase separate. […] Analyze the solution as before, and quantify the absorbance loss at λmax as "% of Dye Remaining in Aqueous Layer" as detailed below: % of Dye Remaining in Aqueous Layer = Aqueous Partition Value (APV) = (Af/Ai) × 100% [formula] wherein Ai is the initial solution absorbance at λmax and Af is the final solution absorbance at λmax. • II. […] After such washing step separately rinse the swatches in tap water and air dry the swatches in the dark. • e.) After rinsing and drying each swatch, the hueing efficiency, DE*eff, of the dye is assessed by determining the L*, a*, and b* value measurements of each swatch using a Hunter LabScan XE reflectance spectrophotometer with D65 illumination, 10° observer and UV filter excluded. […]

% Dye in Water Layer | SMILES
20% | CCN(CCOCCOCCOCCOCCn1cc[n+](C)c1)c1ccc(/N=N/c2sc(C#N)c(C)c2C#N)c(C)c1 [Example 13]
3% | CCN(CCOCCOCCOCCOCC[N+](C)(C)CCCS(=O)(=O)[O-])c1ccc(/N=N/c2sc(C#N)c(C)c2C#N)c(C)c1 [Example 15]
